Source: patent US20190263799A1, “1H-IMIDAZO[4,5-B]PYRIDINYL AND 2-OXO-2,3-DIHYDRO-1H-IMIDAZO[4,5-B]PYRIDINYL HETEROCYCLIC BET BROMODOMAIN INHIBITORS” (ZENITH EPIGENETICS LTD., priority 2015, published 2019)
Where two headings read alike, the source gives them in different places.

Assays:
BRD4(1) = target: T1, BRD4(1) (Homo sapiens, UniProt O60885); assay: Inhibition of tetra-acetylated histone H4 binding to individual BET bromodomains (AlphaScreen); conditions: His-tagged BRD4(1) 20 nM, biotinylated tetra-acetylated histone H4 peptide, 30 min incubation; read-out: FRET activity BRD4(1)
T1 construct: N-terminally His-tagged bromodomains (BRD4(1) at 20 nM and BRD4(2) at 100 nM); made in house; host or cells: E. coli BL21(DE3)
Description: Proteins were cloned and overexpressed with a N-terminal 6×His tag, then purified by nickel affinity followed by size exclusion chromatography. Briefly, E. coli BL21(DE3) cells were transformed with a recombinant expression vector encoding N-terminally Nickel affinity tagged bromodomains from Brd2, Brd3, Brd4. Cell cultures were incubated at 37° C. with shaking to the appropriate density and induced overnight with IPTG. The supernatant of lysed cells was loaded onto Ni-IDA column for purification. Eluted protein was pooled, concentrated and further purified by size exclusion chromatography. Fractions representing monomeric protein were pooled, concentrated, aliquoted, and frozen at −80° C. for use in subsequent experiments.
Binding of tetra-acetylated histone H4 peptide (Millipore) and BET bromodomains was confirmed by Amplified Luminescent Proximity Homogenous Assay (AlphaScreen). N-terminally His-tagged bromodomains (BRD4(1) at 20 nM and BRD4(2) at 100 nM) and biotinylated tetra-acetylated histone H4 (10-25 nM) were incubated in the presence of nickel chelate acceptor beads and streptavidin donor beads (PerkinAlmer, 6760000K) added to a final concentration of 2 μg/mL under green light in a white 96 well microtiter plate (Greiner). For inhibition assays, serially diluted compounds were added to the reaction mixtures in a 0.1% final concentrations of DMSO. Final buffer concentrations were 50 mM HEPES, 100 mM NaCl and 0.1% BSA buffer, pH 7.4 and optimized to 30 min incubation time. Assay plates were read at 570 nm on a Synergy H4 Plate Reader (Biotek). IC50 values were determined from a dose response curve.

cMYC = assay: Inhibition of cMYC expression in cancer cell lines (MV4-11, real-time PCR); format: cell-based; conditions: Homo sapiens, read-out: Myc activity
Description: MV4-11 cells (CRL-9591) were plated at a density of 2.5×10^4 cells per well in 96 well U-bottom plates and treated with increasing concentrations of test compound or DMSO (0.1%) in IMDM media containing 10% FBS and penicillin/streptomycin, and incubated for 3 h at 37° C. Triplicate wells were used for each concentration. Cells were pelleted by centrifugation and harvested using the mRNA Catcher PLUS kit according to manufacturer's instructions. The eluted mRNA isolated was then used in a one-step quantitative real-time PCR reaction, using components of the RNA UltraSense™ One-Step Kit (Life Technologies) together with Applied Biosystems TaqMan® primer-probes for cMYC and Cyclophilin. Real-time PCR plates were run on a ViiA™7 real time PCR machine (Applied Biosystems), data were analyzed, normalizing the Ct values for cMYC to an internal control, prior to determining the fold expression of each sample, relative to the control.

MV4-11 cells = assay: Inhibition of cell proliferation in cancer cell lines (MV4-11, CellTiter Aqueous One); format: cell-based; conditions: Homo sapiens, read-out: Proliferation activity
Description: MV4-11 cells (CRL-9591) were plated at a density of 5×10^4 cells per well in 96 well flat bottom plates and treated with increasing concentrations of test compound or DMSO (0.1%) in IMDM media containing 10% FBS and penicillin/streptomycin. Triplicate wells were used for each concentration and a well containing only media was used as a control. Plates were incubated at 37° C., 5% CO2 for 72 h before adding 20 μL of the CellTiter Aqueous One Solution (Promega) to each well and incubating at 37° C., 5% CO2 for an additional 3-4 h. The absorbance was read at 490 nm in a spectrophotometer and the percentage of cell titer relative to DMSO-treated cells was calculated after correcting for background by subtracting the blank well's signal. IC50 values were calculated using the GraphPad Prism software.

[1] = MV4-11 cells, 3 h incubation, cMYC mRNA

IC50 (BRD4(1))	IC50 (cMYC; [1])	IC50 (MV4-11 cells; MV4-11 cells, 72 h incubation)	SMILES	IC50 (cMYC; MV4-11, 3 h)	IC50 (MV4-11 cells; MV4-11, 72 h)
≤ 0.3 µM	3 to 30 µM	3 to 30 µM	C=CC(=O)N(C)c1cnc2c(c1)n(Cc1ccccc1)c(=O)n2C [Example 12, N-(1-Benzyl-3-methyl-2-oxo-2,3-dihydro-1H-imidazo[4,5-b]pyridin-6-yl)-N-methylacrylamide]		
0.3 to 3 µM	3 to 30 µM	3 to 30 µM	Cc1nc2ncc(N(C)C(=O)CCCl)cc2n1Cc1ccccc1 [Example 5, N-(1-Benzyl-2-methyl-1H-imidazo[4,5-b]pyridin-6-yl)-3-chloro-N-methylpropanamide]		
≤ 0.3 µM	0.3 to 3 µM	0.3 to 3 µM	C[C@H](O)C(=O)N(C)c1cnc2nc(N3CCCC3)n(Cc3ccccc3)c2c1 [Example 34, (S)—N-(1-Benzyl-2-(pyrrolidin-1-yl)-1H-imidazo[4,5-b]pyridin-6-yl)-2-hydroxy-N-methylpropanamide]		
≤ 0.3 µM	0.3 to 3 µM	3 to 30 µM	C=CC(=O)N(C)c1cnc2nc(N(C)C)n(Cc3ccccc3)c2c1 [Example 19, N-(1-Benzyl-2-(dimethylamino)-1H-imidazo[4,5-b]pyridin-6-yl)-N-methylacrylamide]		
≤ 0.3 µM	0.3 to 3 µM	0.3 to 3 µM	C=CC(=O)N(C)c1cnc2nc(N3CC[C@H](O)C3)n(Cc3ccccc3)c2c1 [Example 46, (S)—N-(1-Benzyl-2-(3-hydroxypyrrolidin-1-yl)-1H-imidazo[4,5-b]pyridin-6-yl)-N-methylacrylamide]		
≤ 0.3 µM	0.3 to 3 µM	0.3 to 3 µM	C=CC(=O)N(C)c1cnc2nc(N3CC[C@@H](CO)C3)n(Cc3ccccc3)c2c1 [Example 45, (R)—N-(1-Benzyl-2-(3-(hydroxymethyl)pyrrolidin-1-yl)-1H-imidazo[4,5-b]pyridin-6-yl)-N-methylacrylamide]		
0.3 to 3 µM	3 to 30 µM	3 to 30 µM	C=CC(=O)N(C)c1cnc2nc(N3C[C@H]4CN(C)C[C@H]4C3)n(Cc3ccccc3)c2c1 [Example 27, N-(1-Benzyl-2-((3aR,6aS)-5-methylhexahydropyrrolo[3,4-c]pyrrol-2(1H)-yl)-1H-imidazo[4,5-b]pyridin-6-yl)-N-methylacrylamide]		
≤ 0.3 µM	0.3 to 3 µM	0.3 to 3 µM	C=CC(=O)N(C)c1cnc2nc(N3CC[C@H](N(C)C)C3)n(Cc3ccccc3)c2c1 [Example 38, (S)—N-(1-Benzyl-2-(3-(dimethylamino)pyrrolidin-1-yl)-1H-imidazo[4,5-b]pyridin-6-yl)-N-methylacrylamide]		
≤ 0.3 µM	0.3 to 3 µM	3 to 30 µM	C=CC(=O)N(C)c1cnc2nc(N3CC(N(C)C)C3)n(Cc3ccccc3)c2c1 [Example 47, N-(1-Benzyl-2-(3-(dimethylamino)azetidin-1-yl)-1H-imidazo[4,5-b]pyridin-6-yl)-N-methylacrylamide]		
0.3 to 3 µM	0.3 to 3 µM	3 to 30 µM	CC(C)C(=O)N(C)c1cnc2nc(N3CCCC3)n(Cc3ccccc3)c2c1 [Example 33, N-(1-Benzyl-2-(pyrrolidin-1-yl)-1H-imidazo[4,5-b]pyridin-6-yl)-N-methylisobutyramide]		
≤ 0.3 µM	0.3 to 3 µM	3 to 30 µM	C=CC(=O)N(C)c1cnc2nc(N3CC(CO)C3)n(Cc3ccccc3)c2c1 [Example 26, N-(1-Benzyl-2-(3-(hydroxymethyl)azetidin-1-yl)-1H-imidazo[4,5-b]pyridin-6-yl)-N-methylacrylamide]		
≤ 0.3 µM	0.3 to 3 µM	3 to 30 µM	C=CC(=O)N(C)c1cnc2nc(C)n(Cc3ccccc3)c2c1 [Example 4, N-(1-Benzyl-2-methyl-1H-imidazo[4,5-b]pyridin-6-yl)-N-methylacrylamide]		
≤ 0.3 µM	0.3 to 3 µM	0.3 to 3 µM	C=CC(=O)N(C)c1cnc2nc(NC3CCOCC3)n(Cc3ccccc3)c2c1 [Example 20, N-(1-Benzyl-2-((tetrahydro-2H-pyran-4-yl)amino)-1H-imidazo[4,5-b]pyridin-6-yl)-N-methylacrylamide]		
0.3 to 3 µM	0.3 to 3 µM	3 to 30 µM	C=CC(=O)N(C)c1cnc2nc(N3CCCCC3)n(Cc3ccccc3)c2c1 [Example 23, N-(1-Benzyl-2-(piperidin-1-yl)-1H-imidazo[4,5-b]pyridin-6-yl)-N methylacrylamide]		
≤ 0.3 µM	3 to 30 µM	3 to 30 µM	C=CC(=O)N(C)c1cnc2nc(N3CC[C@H](NC(C)=O)C3)n(Cc3ccccc3)c2c1 [Example 43, (S)—N-(2-(3-Acetamidopyrrolidin-1-yl)-1-benzyl-1H-imidazo[4,5-b]pyridin-6-yl)-N-methylacrylamide]		
≤ 0.3 µM	0.3 to 3 µM	0.3 to 3 µM	C=CC(=O)N(C)c1cnc2nc(N3CC[C@@H](N(C)C)C3)n(Cc3ccccc3)c2c1 [Example 39, (R)—N-(1-Benzyl-2-(3-(dimethylamino)pyrrolidin-1-yl)-1H-imidazo[4,5-b]pyridin-6-yl)-N-methylacrylamide]		
≤ 0.3 µM	0.3 to 3 µM	0.3 to 3 µM	CN(C(=O)C1CC1)c1cnc2nc(N3CCCC3)n(Cc3ccccc3)c2c1 [Example 29, N-(1-Benzyl-2-(pyrrolidin-1-yl)-1H-imidazo[4,5-b]pyridin-6-yl)-N-methylcyclopropanecarboxamide]		
≤ 0.3 µM	0.3 to 3 µM	0.3 to 3 µM	CCC(=O)N(C)c1cnc2nc(N3CCCC3)n(Cc3ccccc3)c2c1 [Example 28, N-(1-Benzyl-2-(pyrrolidin-1-yl)-1H-imidazo[4,5-b]pyridin-6-yl)-N-methylpropionamide]		

SMILES	IC50 (BRD4(1))	IC50 (cMYC; [1])	IC50 (MV4-11 cells; MV4-11 cells, 72 h incubation)	IC50 (cMYC; MV4-11, 3 h)	IC50 (MV4-11 cells; MV4-11, 72 h)
CC(=O)N(C)c1cnc2nc(C)n(Cc3ccccc3)c2c1 [Example 3, N-(1-Benzyl-2-methyl-1H-imidazo[4,5-b]pyridin-6-yl)—N-methylacetamide]	≤ 0.3 µM			3 to 30 µM	3 to 30 µM
COC(=O)N(C)c1cnc2nc(N3CCCC3)n(Cc3ccccc3)c2c1 [Example 30, Methyl (1-benzyl-2-(pyrrolidin-1-yl)-1H-imidazo[4,5-b]pyridin-6-yl)(methyl) carbamate]	≤ 0.3 µM			0.3 to 3 µM	0.3 to 3 µM
CCOC(=O)N(C)c1cnc2nc(N3CCCC3)n(Cc3ccccc3)c2c1 [Example 36, Ethyl (1-benzyl-2-(pyrrolidin-1-yl)-1H-imidazo[4,5-b]pyridin-6-yl)(methyl)carbamate]	≤ 0.3 µM			0.3 to 3 µM	0.3 to 3 µM
C=CC(=O)N(C)c1cnc2nc(N3CC[C@@H](O)C3)n(Cc3ccccc3)c2c1 [Example 41, (R)—N-(1-Benzyl-2-(3-hydroxypyrrolidin-1-yl)-1H-imidazo[4,5-b]pyridin-6-yl)-N-methylacrylamide]	≤ 0.3 µM			3 to 30 µM	3 to 30 µM
C=CC(=O)N(C)c1cnc2nc(NC3CCN(C)CC3)n(Cc3ccccc3)c2c1 [Example 40, N-(1-Benzyl-2-((1-methylpiperidin-4-yl)amino)-1H-imidazo[4,5-b]pyridin-6-yl)-N-methylacrylamide]	≤ 0.3 µM			3 to 30 µM	3 to 30 µM
C=CC(=O)N(C)c1cnc2nc(N3CC(O)C3)n(Cc3ccccc3)c2c1 [Example 42, N-(1-Benzyl-2-(3-hydroxyazetidin-1-yl)-1H-imidazo[4,5-b]pyridin-6-yl)-N-methylacrylamide]	≤ 0.3 µM			3 to 30 µM	3 to 30 µM
